Laboratory results: patent publication US9446039B2, “Aminoheteroaryl compounds as MTH1 inhibitors” (CEMM—FORSCHUNGSZENTRUM FÜR MOLEKULARE MEDIZIN GMBH, priority 2012, dated 2016)

Tests used:
Format in all cases: binding
[1] = target: T1, SW480 colon carcinoma cells lysate proteins (Homo sapiens, UniProt P68402); details: PreyGene PAFAH1B2; SW480 cells
T1 sequence (P68402 1-229): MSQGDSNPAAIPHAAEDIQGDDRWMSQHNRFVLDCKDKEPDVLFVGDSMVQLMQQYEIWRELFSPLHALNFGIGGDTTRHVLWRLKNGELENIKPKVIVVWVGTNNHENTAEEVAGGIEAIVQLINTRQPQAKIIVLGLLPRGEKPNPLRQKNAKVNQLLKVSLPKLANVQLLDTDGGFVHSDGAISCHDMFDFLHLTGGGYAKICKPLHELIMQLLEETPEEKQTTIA

[2] = target: T2, SW480 colon carcinoma cells lysate proteins (Homo sapiens, UniProt Q9BRA2); details: PreyGene TXNDC17
T2 sequence (Q9BRA2 1-123): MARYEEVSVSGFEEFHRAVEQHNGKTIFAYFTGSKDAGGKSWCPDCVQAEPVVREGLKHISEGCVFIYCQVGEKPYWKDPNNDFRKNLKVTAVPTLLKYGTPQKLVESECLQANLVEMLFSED

[3] = target: SW480 colon carcinoma cells lysate proteins (Homo sapiens, UniProt Q71U36); details: PreyGene TUBA1A; SW480 cells
Chain of SW480 colon carcinoma cells lysate proteins (Homo sapiens, UniProt Q71U36) (Q71U36 whole entry): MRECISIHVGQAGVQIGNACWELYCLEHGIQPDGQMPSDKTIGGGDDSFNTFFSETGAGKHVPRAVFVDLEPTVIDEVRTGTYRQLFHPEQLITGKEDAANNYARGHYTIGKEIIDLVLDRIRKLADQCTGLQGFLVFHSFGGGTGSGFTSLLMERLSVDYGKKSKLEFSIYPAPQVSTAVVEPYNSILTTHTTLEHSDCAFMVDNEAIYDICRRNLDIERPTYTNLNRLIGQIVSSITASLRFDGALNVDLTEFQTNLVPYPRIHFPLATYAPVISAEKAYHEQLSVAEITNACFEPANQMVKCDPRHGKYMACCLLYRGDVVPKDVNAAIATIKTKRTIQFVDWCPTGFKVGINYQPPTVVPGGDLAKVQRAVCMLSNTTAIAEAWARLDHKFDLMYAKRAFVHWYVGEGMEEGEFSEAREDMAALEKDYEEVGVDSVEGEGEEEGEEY

C[C@H](Oc1cc(-c2cnn(C3CCNCC3)c2)cnc1N)c1c(Cl)ccc(F)c1Cl [(5)-crizotinib]
AvgP [1]: 0 | SC.Exp. 1-1 [1]: 1 | SC.Exp. 1-2 [1]: 1 | SC.Exp. 2-1 [1]: 0 | SC.Exp. 2-2 [1]: 0 | SC.Exp. Sum [1]: 2 | AvgP [2]: 0.1862 | SC.Exp. 1-1 [2]: 2 | SC.Exp. 1-2 [2]: 3 | SC.Exp. 2-1 [2]: 0 | SC.Exp. 2-2 [2]: 0 | Sum (SC.Exp.) [2]: 5 | AvgP [3]: 0 | SC.Exp. 1-1 [3]: 12 | SC.Exp. 1-2 [3]: 11 | SC.Exp. 2-1 [3]: 9 | SC.Exp. 2-2 [3]: 10 | SC.Exp. Sum [3]: 42
